In patent US6821769B2, “IniB, iniA and iniC genes of mycobacteria and methods of use” (priority 1998, dated 2004):

System: iniA
Format: cell-based, BCG

How did the “Induction of iniA in isoniazid resistant BCG strain” value turn out when NNC(=O)c1ccncc1 [isoniazid] was run?
Its value is “Lack of iniA induction”.

What about the “Induction of iniA in isoniazid susceptible BCG strain” value of the same compound?
Its value is “seen only in the susceptible BCG strain”.
